Data taken from the supplement of paper PMC10307832.

Experiments:
Test in all cases: relative viability (nuclei count vs DMSO), 5 days (fraction); higher = more cells survive
XMD8-85 + Palbociclib = compound: CN1CCN(CC1)C2=CC(=C(C=C2)NC3=NC=C4C(=N3)N(C5=CC=CC=C5C(=O)N4C)C)OC [XMD8-85] + CC(=O)c1c(C)c2cnc(Nc3ccc(N4CCNCC4)cn3)nc2n(C2CCCC2)c1=O [Palbociclib] (partner 0.5 µM)
Method in brief: (§1)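 Lung cancer cell lines in 1536-well plates were dosed by pin tool the day after seeding, either with one drug alone or with a fixed anchor-drug dose plus five library-drug doses (not always all listed) in √10 steps. After 5 days, cells were fixed and their nuclei stained in one step (final 0.05% Triton X-100, 1% formaldehyde, 1 ug/ml Hoechst), then counted on 4× images. Relative viability is the nuclei count in treated wells divided by that in vehicle wells. Values are medians of duplicate plates.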

4EGI-1 + Decitabine = compound: O=C(O)C(Cc1ccccc1[N+](=O)[O-])=NNc1nc(-c2ccc(Cl)c(Cl)c2)cs1 (mixture of isomers) [4EGI-1] + Nc1ncn([C@H]2C[C@H](O)[C@@H](CO)O2)c(=O)n1 [Decitabine] (partner 2 µM)
Method in brief: as §1

4EGI-1 + Crizotinib = compound: O=C(O)C(Cc1ccccc1[N+](=O)[O-])=NNc1nc(-c2ccc(Cl)c(Cl)c2)cs1 (mixture of isomers) [4EGI-1] + C[C@@H](Oc1cc(-c2cnn(C3CCNCC3)c2)cnc1N)c1c(Cl)ccc(F)c1Cl [Crizotinib] (partner 1 µM)
Method in brief: as §1

XMD8-85 + AZD7762 = compound: CN1CCN(CC1)C2=CC(=C(C=C2)NC3=NC=C4C(=N3)N(C5=CC=CC=C5C(=O)N4C)C)OC [XMD8-85] + NC(=O)Nc1cc(-c2cccc(F)c2)sc1C(=O)N[C@H]1CCCNC1 [AZD7762] (partner 0.2 µM)
Method in brief: as §1

Cell Line | relative viability (XMD8-85 + Palbociclib; first compound 0.08 µM) | relative viability (XMD8-85 + Palbociclib; first compound 0.253 µM) | relative viability (XMD8-85 + Palbociclib; first compound 0.8 µM) | relative viability (XMD8-85 + Palbociclib; first compound 2.53 µM) | relative viability (XMD8-85 + Palbociclib; first compound 8 µM) | relative viability (4EGI-1 + Decitabine; first compound 0.5 µM) | relative viability (4EGI-1 + Decitabine; first compound 1.581 µM) | relative viability (4EGI-1 + Decitabine; first compound 5 µM) | relative viability (4EGI-1 + Decitabine; first compound 15.81 µM) | relative viability (4EGI-1 + Decitabine; first compound 50 µM) | relative viability (4EGI-1 + Crizotinib; first compound 0.5 µM) | relative viability (4EGI-1 + Crizotinib; first compound 5 µM) | relative viability (4EGI-1 + Crizotinib; first compound 15.81 µM) | relative viability (4EGI-1 + Crizotinib; first compound 50 µM) | relative viability (XMD8-85 + AZD7762; first compound 0.08 µM) | relative viability (XMD8-85 + AZD7762; first compound 0.253 µM) | relative viability (XMD8-85 + AZD7762; first compound 0.8 µM) | relative viability (XMD8-85 + AZD7762; first compound 2.53 µM) | relative viability (XMD8-85 + AZD7762; first compound 8 µM) | relative viability (4EGI-1 + Crizotinib; first compound 1.581 µM)
LC-2-ad | 0.482 | 0.452 | 0.51 | 0.49 | 0.39 | 0.876 | 0.859 | 0.742 | 0.587 | 0.444 | 0.433 | 0.451 | 0.343 | 0.411 | 0.808 | 0.837 | 0.895 | 0.779 | 0.596 | –
LCLC-97TM1 | 0.192 | 0.188 | 0.188 | 0.204 | 0.239 | 0.278 | – | 0.23 | 0.248 | 0.124 | 0.445 | 0.397 | 0.302 | 0.172 | 0.207 | 0.171 | 0.304 | 0.286 | 0.293 | –
LCLC-103H | 0.483 | 0.445 | 0.489 | 0.484 | 0.405 | 0.778 | 0.733 | 0.688 | 0.666 | 0.458 | 1.05 | 0.937 | 0.857 | 1.05 | 0.769 | 0.825 | 0.811 | 0.851 | 0.781 | 0.926
LK-2 | 0.554 | 0.778 | 0.592 | 0.491 | 0.668 | 0.273 | – | 0.318 | 0.315 | 0.166 | 0.244 | 0.253 | 0.256 | 0.216 | 0.288 | 0.334 | 0.322 | 0.254 | 0.284 | –
LOU-NH91 | 0.536 | 0.496 | 0.503 | 0.534 | 0.514 | 0.841 | – | 0.815 | 0.658 | 0.686 | 0.788 | 0.72 | 0.508 | 0.55 | 0.678 | 0.763 | 0.806 | 0.835 | 0.59 | –
LU99A | 0.367 | 0.36 | 0.458 | 0.46 | 0.368 | 0.879 | 0.699 | 0.83 | 0.851 | 0.508 | 0.657 | 0.677 | 0.463 | 0.215 | 0.328 | 0.504 | 0.407 | 0.378 | 0.341 | –
LXF-289 | 0.581 | 0.615 | 0.561 | 0.658 | 0.54 | 0.436 | 0.346 | 0.391 | 0.359 | 0.287 | 0.889 | 0.817 | 0.672 | 0.332 | 1.09 | 1.16 | 1.16 | 1.12 | 0.995 | 0.803
NCI-H23 | 0.488 | – | 0.525 | 0.441 | 0.413 | 0.331 | – | 0.337 | 0.45 | 0.2 | 0.592 | 0.654 | 0.501 | 0.481 | 0.173 | 0.287 | 0.23 | 0.18 | 0.2 | –
NCI-H322M | 0.466 | 0.447 | 0.457 | 0.444 | 0.431 | 0.692 | – | 0.764 | 0.636 | 0.727 | 0.947 | 1.02 | 0.823 | 1.02 | 0.566 | 0.606 | 0.568 | 0.451 | 0.38 | 0.815
